This note sets out measurements from PubChem BioAssay AID2060505 (Molecular Pharmacology Branch, DTP, NCI, 2025).

For orientation: IC50 means the concentration that inhibits the measured activity by half. One may read the viability, T/C as the result in the treated group divided by that in the control group, in per cent.

The assay has as its system 633275-114-R-J1-PDC complex spheroids, viability. Description: Anticancer human tumor 633275-114-R-J1-PDC patient-derived endometrial adenocarcinoma cell line growth inhibition [GQUAD]. As to conditions: for viability, T/C: stronger effect = lower value. From the text:
DNA G-quadruplex Stabilizer Agents in Combinations in Complex Spheroids
A high-throughput screen of multi-cell type tumor spheroids was designed to identify active combinations of DNA G-quadruplex stabilizer agents and targeted small molecules. Complex spheroids include a stromal component modeled by human endothelial cells (HUVEC) and fibroblasts modeled by human mesenchymal stem cells (MSCs). The concentration ranges selected for each drug and investigational agent were based upon clinically achievable concentrations if the clinical Cmax of the agent was known.
Compounds. The drugs and investigational agents: pidnarulex (CX-5461; NSC782164), APTO-253 (NSC789042), BRACO-19 (NSC847499), peposertib (NSC802822), ceralasertib (NSC780249), elimusertib (NSC800525), camonsertib (NSC841442), AZD-1390 (NSC803789), olaparib (NSC753686), talazoparib (NSC767125), ART-558 (NSC835418), sotorasib (NSC818433), MRTX-1133 (NSC836407), SN-38 (NSC673596), topotecan (NSC609699), etoposide (NSC141540), doxorubicin (NSC123127), gemcitabine (NSC613327), 5-fluorouracil (NSC19893), paclitaxel (NSC125973), vemurafenib (NSC761431), panobinostat (NSC761190), R-306465 (JNJ-16241199; NSC773264), adavosertib (NSC754352), TP-3654 (NSC805149), carboplatin (NSC241240), KSQ-4279 (NSC840948), and staurosporine (NSC755774) were obtained from the National Cancer Institute (NCI) Developmental Therapeutics Program Chemical Repository (34). The FDA-approved anticancer drug set is available from the NCI Developmental Therapeutics Program. […] The stock solutions were prepared in dimethyl sulfoxide (DMSO, Sigma-Aldrich, St. Louis, MO, cat. D2650) at 800-fold the tested concentration and stored at -70 degrees C prior to their use. All drugs and investigational agents were tested over a range starting from a high concentration at or near the clinical Cmax and decreasing in half-log increments. If the clinical Cmax for an agent had not been determined, the highest concentration tested was 10 microM.
2.3 Cell Culture. All cells were maintained in an incubator at 37 degrees C and 5% CO2 with 95% humidity. The PDC lines were cultured according to standard operating procedures established by the NCI PDMR. All PDCs were thawed and cultured in Matrigel-coated flasks prepared with a working solution of 1X Ham's F-12 nutrient mix, without supplementation (Invitrogen, cat. 11765054), 100 U/mL penicillin-streptomycin (Invitrogen, cat. 15140122), and 2.5% Matrigel (Corning Inc., cat. 354248) for the first three passages. The 857933-349-R-J2-PDC line was cultured in 6C/Colon 1B media, which includes advanced DMEM/F-12 (Thermo Fisher Scientific, cat. 12634028), 10 mM HEPES (Thermo Fisher Scientific, cat. 15630080), 1X GlutaMAX supplement (Thermo Fisher Scientific, cat. 35050061), 0.1 mg/mL primocin (InvivoGen, cat. ant-pm-2), 10% defined fetal bovine serum, heat inactivated (HyClone Laboratories Inc., cat. SH30070.03HI), 50% L-WRN conditioned media (ATCC, cat. CRL-3276), 1.25 mM N-Acetyl-L-cysteine (Sigma-Aldrich, cat. A9165), 10 mM nicotinamide (Sigma-Aldrich, cat. N0636), 1X B-27 supplement (Thermo Fisher Scientific, cat. 17504044), 1X N-2 supplement (Thermo Fisher Scientific, cat. 17502048), 10 microM Y-27632 dihydrochloride (Tocris Bioscience, cat. 1254), and 50 ng/mL human EGF recombinant protein (Thermo Fisher Scientific, cat. PHG0311). The 485176-168-R4-J1-PDC line was cultured in Panc media, which includes all 6C/Colon 1B media components plus 100 ng/mL human FGF-10 (Thermo Fisher Scientific, cat. 100-26), 500 nM SB-431542 (Selleckchem, cat. S1067), and gastrin (Tocris, cat. 3006).
[…]

Setting [1] is: curve of first compound, second compound 0.0316 µM.
Where [2] appears, read: curve of first compound, second compound 0.1 µM.
The mark [3] stands for this setting: curve of first compound, second compound 0.316 µM.
Where [4] appears, read: curve of first compound, second compound 1 µM.
Where [5] appears, read: curve of first compound, second compound 3.16 µM.
[6] abbreviates: curve of first compound, second compound 10 µM.
[7] abbreviates: second compound 0.0316 µM, first compound 0.0316 µM.
Setting [8] is: second compound 0.0316 µM, first compound 0.1 µM.
The mark [9] stands for this setting: second compound 0.0316 µM, first compound 0.316 µM.
Setting [10] is: second compound 0.0316 µM, first compound 1 µM.
The mark [11] stands for this setting: second compound 0.0316 µM, first compound 3.16 µM.
[12] abbreviates: second compound 0.0316 µM, first compound 10 µM.
The mark [13] stands for this setting: second compound 0.1 µM, first compound 0.0316 µM.
Where [14] appears, read: second compound 0.1 µM, first compound 0.1 µM.
[15] abbreviates: second compound 0.1 µM, first compound 0.316 µM.
Where [16] appears, read: second compound 0.1 µM, first compound 1 µM.
Setting [17] is: second compound 0.1 µM, first compound 3.16 µM.
[18] abbreviates: second compound 0.1 µM, first compound 10 µM.
Where [19] appears, read: second compound 0.316 µM, first compound 0.0316 µM.
Setting [20] is: second compound 0.316 µM, first compound 0.1 µM.
Setting [21] is: second compound 0.316 µM, first compound 0.316 µM.
[22] abbreviates: second compound 0.316 µM, first compound 1 µM.
Setting [23] is: second compound 0.316 µM, first compound 3.16 µM.
The mark [24] stands for this setting: second compound 0.316 µM, first compound 10 µM.
[25] abbreviates: second compound 1 µM, first compound 0.0316 µM.
Setting [26] is: second compound 1 µM, first compound 0.1 µM.
[27] abbreviates: second compound 1 µM, first compound 0.316 µM.
Setting [28] is: second compound 1 µM, first compound 1 µM.
The mark [29] stands for this setting: second compound 1 µM, first compound 3.16 µM.
The mark [30] stands for this setting: second compound 1 µM, first compound 10 µM.
Where [31] appears, read: second compound 3.16 µM, first compound 0.0316 µM.
Where [32] appears, read: second compound 3.16 µM, first compound 0.1 µM.
Setting [33] is: second compound 3.16 µM, first compound 0.316 µM.
Setting [34] is: second compound 3.16 µM, first compound 1 µM.
The mark [35] stands for this setting: second compound 3.16 µM, first compound 3.16 µM.
Setting [36] is: second compound 3.16 µM, first compound 10 µM.
The mark [37] stands for this setting: second compound 10 µM, first compound 0.0316 µM.
Where [38] appears, read: second compound 10 µM, first compound 0.1 µM.
Where [39] appears, read: second compound 10 µM, first compound 0.316 µM.
The mark [40] stands for this setting: second compound 10 µM, first compound 1 µM.
[41] abbreviates: second compound 10 µM, first compound 3.16 µM.
Setting [42] is: second compound 10 µM, first compound 10 µM.

Values joined by “and” are separate entries in the source; they are usually repeats but may differ in a detail not shown here. Equal entries are not always repeated.
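Also: spheroids exposed to the agents for seven days.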
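For viability, T/C in this document: percent of DMSO vehicle control viability which is 100%.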

On to `C=CCn1c(=O)c2cnc(Nc3ccc(N4CCN(C)CC4)cc3)nc2n1-c1cccc(C(C)(C)O)n1` + CN(C)c1ccc(Nc2c3ccc(NC(=O)CCN4CCCC4)cc3nc3cc(NC(=O)CCN4CCCC4)ccc23)cc1, for which the IC50 by setting is: under setting [1], 582 nM; under setting [2], 692 nM; under setting [3], 586 nM; under setting [4], 641 nM; under setting [5], 390 nM; under setting [6], less than 31.6 nM. Also, the viability, T/C was 103% under setting [7]; 84.3% under setting [8]; 69.8% under setting [9]; 33.9% under setting [10]; 19.5% under setting [11]; 14.8% under setting [12]. The viability, T/C is, setting by setting: under setting [13], 106%; under setting [14], 92.5%; under setting [15], 82.1%; under setting [16], 34.2%; under setting [17], 20.8%; under setting [18], 14.1%. The viability, T/C under setting [19] is 105%; the viability, T/C under setting [20] was 97%; the viability, T/C under setting [21] is 63.8%; the viability, T/C under setting [22] is 37.6%; the viability, T/C under setting [23] was 20.6%; the viability, T/C under setting [24] is 15.6%. The viability, T/C was 93.4% under setting [25]; 85% under setting [26]; 71% under setting [27]; 36.9% under setting [28]; 19.8% under setting [29]; 15.7% under setting [30]. In addition, the viability, T/C was 87.2% under setting [31]; 66.8% under setting [32]; 55.8% under setting [33]; 34.8% under setting [34]; 29.4% under setting [35]; 16.6% under setting [36]. Moreover, the viability, T/C reads like this: under setting [37], 32.2%; under setting [38], 23.9%; under setting [39], 22.2%; under setting [40], 16.9%; under setting [41], 14.9%; under setting [42], 7.51%.
Take `CN(C)c1ccc(Nc2c3ccc(NC(=O)CCN4CCCC4)cc3nc3cc(NC(=O)CCN4CCCC4)ccc23)cc1`: the viability, T/C was 102% [middle of 12 runs] (compound 0.0316 µM); 101% [middle of 12 runs] (compound 0.1 µM); 103% [middle of 12 runs] (compound 0.316 µM); 94.3% [middle of 12 runs] (compound 1 µM); 81.8% [middle of 12 runs] (compound 3.16 µM); 36.6% [middle of 12 runs] (compound 10 µM). Under “compound alone, run of 03/26/2024”, the IC50 was 7.24 µM [middle of 12 runs].
As to `CC(=O)O[C@H]1C(=O)[C@@]2(C)[C@H]([C@H](OC(=O)c3ccccc3)[C@]3(O)C[C@H](OC(=O)[C@H](O)[C@@H](NC(=O)c4ccccc4)c4ccccc4)C(C)=C1C3(C)C)[C@]1(OC(C)=O)CO[C@@H]1C[C@@H]2O`, the viability, T/C by setting is: (compound 0.0316 µM) 47.5% and 49.6% and 46.9%; (compound 0.1 µM) 22.7% and 22.6% and 27.5%; (compound 0.316 µM) 18.4% and 21% and 21.7%; (compound 1 µM) 20.4% and 20% and 23.4%; (compound 3.16 µM) 18.8% and 21.8% and 21.4%; (compound 10 µM) 19.4% and 21.5% and 20.4%. Moreover, the 50% inhibitory concentration (IC50) (curve of compound) is less than 31.6 nM.
Turning to `CC(C)(O)C1CCC(Nc2ccc3ncc(-c4cccc(C(F)(F)F)c4)n3n2)CC1` (centres undefined) + CN(C)c1ccc(Nc2c3ccc(NC(=O)CCN4CCCC4)cc3nc3cc(NC(=O)CCN4CCCC4)ccc23)cc1, the IC50 is, setting by setting: under setting [1], 1850 nM; under setting [2], 1990 nM; under setting [3], 2090 nM; under setting [4], 1820 nM; under setting [5], 1310 nM; under setting [6], less than 31.6 nM. Also, the viability, T/C is, setting by setting: under setting [7], 102%; under setting [8], 96.8%; under setting [9], 90.1%; under setting [10], 72.2%; under setting [11], 28.8%; under setting [12], 32.2%. Further, the viability, T/C is 94% under setting [13]; 99.9% under setting [14]; 88.2% under setting [15]; 70.4% under setting [16]; 32.8% under setting [17]; 39.7% under setting [18]. Moreover, the viability, T/C by setting is: under setting [19], 97.6%; under setting [20], 87.7%; under setting [21], 92.6%; under setting [22], 76.1%; under setting [23], 32.7%; under setting [24], 37.8%. The viability, T/C is 94.6% under setting [25]; 97.2% under setting [26]; 88.3% under setting [27]; 73% under setting [28]; 27.8% under setting [29]; 28.2% under setting [30]. Besides, the viability, T/C reads like this: under setting [31], 85.4%; under setting [32], 69.2%; under setting [33], 81.9%; under setting [34], 59.5%; under setting [35], 19.1%; under setting [36], 20.4%. In addition, the viability, T/C by setting is: under setting [37], 33.1%; under setting [38], 32.3%; under setting [39], 23.7%; under setting [40], 21.1%; under setting [41], 7.71%; under setting [42], 6.08%.
Turning to `CCCS(=O)(=O)Nc1ccc(F)c(C(=O)c2c[nH]c3ncc(-c4ccc(Cl)cc4)cc23)c1F`, the viability, T/C reads like this: (compound 0.0316 µM) 101% and 96% and 115%; (compound 0.1 µM) 91.7% and 116% and 104%; (compound 0.316 µM) 101% and 107% and 113%; (compound 1 µM) 105% and 106% and 99.1%; (compound 3.16 µM) 101% and 87.6% and 96.9%; (compound 10 µM) 42.9% and 43.6% and 32.6%. For the setting “curve of compound”, the IC50 is 8670 nM and 8460 nM and 7300 nM.
As to `O=C(NO)c1cnc(N2CCN(S(=O)(=O)c3ccc4ccccc4c3)CC2)nc1`, the viability, T/C (compound 0.0316 µM) is 75.3% and 69.1% and 84.1%; the viability, T/C (compound 0.1 µM) is 61.1% and 65.8% and 72.9%; the viability, T/C (compound 0.316 µM) was 38.8% and 38.6% and 43.8%; the viability, T/C (compound 1 µM) was 21.8% (2×) and 19.6%; the viability, T/C (compound 3.16 µM) is 12.8% and 12.7% and 13.8%; the viability, T/C (compound 10 µM) was 5.19% and 5.98% and 4.22%. Moreover, the half-inhibitory concentration (IC50) (curve of compound) is 177 nM and 198 nM and 252 nM.
`C=CC(=O)N1CCN(c2nc(=O)n(-c3c(C)ccnc3C(C)C)c3nc(-c4c(O)cccc4F)c(F)cc23)C(C)C1` (centres undefined): the viability, T/C is 98.6% and 102% and 105% (compound 0.0316 µM); 101% and 93.9% and 95.3% (compound 0.1 µM); 109% and 115% and 99.2% (compound 0.316 µM); 105% and 90.3% and 92% (compound 1 µM); 111% and 93.5% and 105% (compound 3.16 µM); 85% and 77% and 90.2% (compound 10 µM). For the same compound, the concentration for half-maximal inhibition (IC50) (curve of compound) was greater than 10000 nM.
